Test system: mouse counterpart genes
Assay: Mouse GeneChip (MG-U74A to MG-U74C) analysis of lung and trachea of the OVA antigen-exposed bronchial hypersensitivity model, S-Sal group versus S-OVA group
Format: in vivo
[1] = S-Sal group vs S-OVA group, chip B, 1st
[2] = S-Sal group vs S-OVA group, chip B, 2nd
[3] = S-Sal group vs S-OVA group, chip B, 3rd
[4] = S-Sal group vs S-OVA group, chip C, 1st
[5] = S-Sal group vs S-OVA group, chip C, 2nd
[6] = S-Sal group vs S-OVA group, chip C, 3rd
[7] = S-Sal vs S-OVA group, 1st, P/A: A
[8] = S-Sal vs S-OVA group, 1st, P/A: M
[9] = S-Sal vs S-OVA group, 1st, P/A: P
[10] = S-Sal vs S-OVA group, 2nd, P/A: A
[11] = S-Sal vs S-OVA group, 2nd, P/A: P

With “ovalbumin [OVA antigen, ovalbumin antigen used for sensitization and inhalation to induce bronchial hypersensitivity in mice]” the “Fold Change, SAM domain and HD domain, 1 (mouse Probe ID 109915_at)” value (shortened to “Fold Change, SAM domain and HD domain”) [1] was 1.2, the “Fold Change, Similar to dihydropyrimidine dehydrogenase, clone MGC: 37940 (mouse Probe ID 111949_at)” value (shortened to “Fold Change … (mouse Probe ID 111949_at)”) [1] was 0.588 and the “Fold Change, Similar to guanylate nucleotide binding protein 3, clone MGC: 6385 (mouse Probe ID 107939_at)” value (from here on “Fold Change … (mouse Probe ID 107939_at)”) [1] was 1.9. The “Fold Change, procollagen lysine, 2-oxoglutarate 5-dioxygenase 2 (mouse Probe ID 114376_at)” value [1] was 0.833, the “Fold Change, thioredoxin reductase 1 (mouse Probe ID 162642_at)” value [1] was 0.323 and the “Fold Change, ESTs AI844322 (mouse Probe ID 110469_at)” value [2] was 0.833. The “Fold Change, RIKEN cDNA 2610017M01 gene (mouse Probe ID 105606_at)” value [2] was 0.5, the “Fold Change, RIKEN cDNA 2610017M01 gene (mouse Probe ID 163053_at)” value [2] was 0.833 and the “Fold Change, SAM domain and HD domain” value [2] was 0.303. The “Fold Change … (mouse Probe ID 111949_at)” value [2] was 0.588, the “Fold Change … (mouse Probe ID 107939_at)” value [2] was 1.2 and the “Fold Change, growth arrest and DNA-damage-inducible 45 gamma (mouse Probe ID 109336_at)” value [2] was 1.7. The “Fold Change, procollagen lysine, 2-oxoglutarate 5-dioxygenase 2 (mouse Probe ID 114376_at)” value [2] was 1.1, the “Fold Change, thioredoxin reductase 1 (mouse Probe ID 162642_at)” value [2] was 2.8 and the “Fold Change, RIKEN cDNA 2610017M01 gene (mouse Probe ID 105606_at)” value [3] was 0.667. The “Fold Change, RIKEN cDNA 2610017M01 gene (mouse Probe ID 163053_at)” value [3] was 1.2, the “Fold Change, SAM domain and HD domain” value [3] was 1.1 and the “Fold Change … (mouse Probe ID 111949_at)” value [3] was 0.833. The “Fold Change … (mouse Probe ID 107939_at)” value [3] was 0.833, the “Fold Change, thioredoxin reductase 1 (mouse Probe ID 162642_at)” value [3] was 0.588 and the “Fold Change, RIKEN cDNA 6330404C01 gene (mouse Probe ID 166590_at)” value [4] was 2. For the same substance, the “Fold Change, expressed sequence AV022454 (mouse Probe ID 165678_i_at)” value (“Fold Change, expressed sequence AV022454” for short) [4] was 1.3, the “Fold Change, interferon-induced protein with tetratricopeptide repeats 1 (mouse Probe ID 168299_f_at)” value (shortened to “Fold Change, interferon-induced protein”) [4] was 1.3 and the “Fold Change, small inducible cytokine subfamily B (Cys-X-Cys), member 11 (mouse Probe ID 140659_at)” value (“Fold Change … (mouse Probe ID 140659_at)” for short) [4] was 3.8. For the same substance, the “Fold Change, RIKEN cDNA 6330404C01 gene (mouse Probe ID 166590_at)” value [5] was 1, the “Fold Change, expressed sequence AV022454” value [5] was 1.3 and the “Fold Change, hydroxysteroid (17-beta) dehydrogenase 2 (mouse Probe ID 166141_i_at)” value [5] was 0.526. For the same substance, the “Fold Change, interferon-induced protein” value [5] was 1.1, the “Fold Change, sialyltransferase 1 (beta-galactoside alpha-2,6-sialyltransferase) (mouse Probe ID 167200_r_at)” value [5] was 1.6 and the “Fold Change … (mouse Probe ID 140659_at)” value [5] was 2. The “Fold Change, expressed sequence AV022454” value [6] was 2.2, the “Fold Change, hydroxysteroid (17-beta) dehydrogenase 2 (mouse Probe ID 166141_i_at)” value [6] was 1.9 and the “Fold Change, hydroxysteroid (17-beta) dehydrogenase 2 (mouse Probe ID 169670_at)” value [6] was 0.385. For the same substance, the “Fold Change, interferon-induced protein” value [6] was 1.2, the “Fold Change … (mouse Probe ID 140659_at)” value [6] was 1 and the “Fold Change, DNA-damage inducible transcript 3 (mouse Probe ID 101429_at)” value [7] was 0.37. The “Fold Change, RAS guanyl releasing protein 1 (mouse Probe ID 98307_at)” value [7] was 0.5, the “Fold Change, RAS guanyl releasing protein 1 (mouse Probe ID 167498_i_at)” value [7] was 0.833 and the “Fold Change, RIKEN cDNA A2301D9K23 gene (mouse Probe ID 163453_at)” value [7] was 1.6. For the same substance, the “Fold Change, RIKEN cDNA A2301D9K23 gene (mouse Probe ID 166475_r_at)” value [7] was 1.2, the “Fold Change, acid phosphatase 5, tartrate resistant (mouse Probe ID 162543_r_at)” value [7] was 4.3 and the “Fold Change, cathepsin C (mouse Probe ID 101020_at)” value [7] was 1.8. For the same substance, the “Fold Change, cathepsin C (mouse Probe ID 161251_f_at)” value [7] was 0.667, the “Fold Change, cytokine inducible SH2-containing protein 1 (mouse Probe ID 92832_at)” value [7] was 1.6 and the “Fold Change, dual specificity phosphatase 14 (mouse Probe ID 165144_r_at)” value [7] was 0.5. For the same substance, the “Fold Change, dual specificity phosphatase 14 (mouse Probe ID 171285_at)” value [7] was 1.7, the “Fold Change, fetuin beta (mouse Probe ID 108524_at)” value [7] was 1.2 and the “Fold Change, keratin complex 1, acidic, gene 16 (mouse Probe ID 103589_at)” value [7] was 1.8. The “Fold Change, keratin complex 1, acidic, gene 16 (mouse Probe ID 164428_i_at)” value [7] was 1.5, the “Fold Change, nuclear factor, interleukin 3, regulated (mouse Probe ID 164758_i_at)” value [7] was 1.4 and the “Fold Change, serine (or cysteine) proteinase inhibitor, clade B (ovalbumin), member 2 (mouse Probe ID 137166_r_at)” value [7] was 0.667. For the same substance, the “Fold Change, transmembrane 4 superfamily member 8 (mouse Probe ID 97912_at)” value [7] was 3.6, the “Fold Change, ubiquitin D (mouse Probe ID 169362_f_at)” value [7] was 1.2 and the “Fold Change, neutrophil cytosolic factor 2 (mouse Probe ID 102326_at)” value [8] was 2. For the same substance, the “Fold Change, ubiquitin fusion degradation 1 like (mouse Probe ID 93303_at)” value [8] was 0.567, the “Fold Change, DEAD (aspartate-glutamate-alanine-aspartate) box polypeptide 5 (mouse Probe ID 93493_at)” value [9] was 1 and the “Fold Change, DEAD (aspartate-glutamate-alanine-aspartate) box polypeptide 5 (mouse Probe ID 113899_at)” value [9] was 0.909. The “Fold Change, RIKEN cDNA 4933419D20 gene (mouse Probe ID 97442_at)” value [9] was 1.2, the “Fold Change, RIKEN cDNA 4933419D20 gene (mouse Probe ID 112237_at)” value [9] was 1.1 and the “Fold Change, cathepsin C (mouse Probe ID 101019_at)” value [9] was 1.2. For the same substance, the “Fold Change, dual specificity phosphatase 14 (mouse Probe ID 162702_at)” value [9] was 1.2, the “Fold Change, expressed sequence AI463430 (mouse Probe ID 112883_at)” value [9] was 1 and the “Fold Change, fatty acid binding protein 4, adipocyte (mouse Probe ID 100567_at)” value [9] was 0.556. The “Fold Change, integrin-associated protein (mouse Probe ID 103611_at)” value [9] was 1, the “Fold Change, ribosomal protein S16 (mouse Probe ID 97647_at)” value [9] was 1 and the “Fold Change, ribosomal protein S16 (mouse Probe ID 169860_r_at)” value [9] was 33. For the same substance, the “Fold Change, serine (or cysteine) proteinase inhibitor, clade B (ovalbumin), member 2 (mouse Probe ID 92978_s_at)” value [9] was 2.1, the “Fold Change, serine (or cysteine) proteinase inhibitor, clade B (ovalbumin), member 6 (mouse Probe ID 96060_at)” value [9] was 1.1 and the “Fold Change, signal transducer and activator of transcription 1 (mouse Probe ID 101465_at)” value [9] was 1.8. The “Fold Change, signal transducer and activator of transcription 1 (mouse Probe ID 114635_at)” value [9] was 2, the “Fold Change, ubiquitin D (mouse Probe ID 168938_r_at)” value [9] was 1.4 and the “Fold Change, DNA-damage inducible transcript 3 (mouse Probe ID 101429_at)” value [10] was 0.526. For the same substance, the “Fold Change, RAS guanyl releasing protein 1 (mouse Probe ID 167498_i_at)” value [10] was 1.6, the “Fold Change, RIKEN cDNA A2301D9K23 gene (mouse Probe ID 163453_at)” value [10] was 1.4 and the “Fold Change, RIKEN cDNA A2301D9K23 gene (mouse Probe ID 166475_r_at)” value [10] was 0.556. For the same substance, the “Fold Change, acid phosphatase 5, tartrate resistant (mouse Probe ID 162543_r_at)” value [10] was 6.8, the “Fold Change, cathepsin C (mouse Probe ID 101020_at)” value [10] was 0.625 and the “Fold Change, cathepsin C (mouse Probe ID 161251_f_at)” value [10] was 1. For the same substance, the “Fold Change, cytokine inducible SH2-containing protein 1 (mouse Probe ID 92832_at)” value [10] was 1.9, the “Fold Change, dual specificity phosphatase 14 (mouse Probe ID 165144_r_at)” value [10] was 0.833 and the “Fold Change, fetuin beta (mouse Probe ID 108524_at)” value [10] was 0.278. The “Fold Change, keratin complex 1, acidic, gene 16 (mouse Probe ID 103589_at)” value [10] was 1.3, the “Fold Change, keratin complex 1, acidic, gene 16 (mouse Probe ID 164428_i_at)” value [10] was 1.6 and the “Fold Change, ribosomal protein S16 (mouse Probe ID 169860_r_at)” value [10] was 1.4. For the same substance, the “Fold Change, serine (or cysteine) proteinase inhibitor, clade B (ovalbumin), member 2 (mouse Probe ID 137166_r_at)” value [10] was 0.667, the “Fold Change, transmembrane 4 superfamily member 8 (mouse Probe ID 97912_at)” value [10] was 1 and the “Fold Change, ubiquitin D (mouse Probe ID 92715_at)” value [10] was 0.455. For the same substance, the “Fold Change, ubiquitin D (mouse Probe ID 168938_r_at)” value [10] was 0.667, the “Fold Change, ubiquitin D (mouse Probe ID 169362_f_at)” value [10] was 1 and the “Fold Change, ubiquitin fusion degradation 1 like (mouse Probe ID 93303_at)” value [10] was 0.303. For the same substance, the “Fold Change, RAS guanyl releasing protein 1 (mouse Probe ID 98307_at)” value (S-Sal vs S-OVA group, 2nd, P/A: M) was 1.7, the “Fold Change, DEAD (aspartate-glutamate-alanine-aspartate) box polypeptide 5 (mouse Probe ID 93493_at)” value [11] was 1 and the “Fold Change, DEAD (aspartate-glutamate-alanine-aspartate) box polypeptide 5 (mouse Probe ID 113899_at)” value [11] was 0.714. For the same substance, the “Fold Change, RIKEN cDNA 4933419D20 gene (mouse Probe ID 97442_at)” value [11] was 1, the “Fold Change, RIKEN cDNA 4933419D20 gene (mouse Probe ID 112237_at)” value [11] was 1 and the “Fold Change, acid phosphatase 5, tartrate resistant (mouse Probe ID 98859_at)” value [11] was 1.4.

Reference: patent publication US20050208496A1, “Methods of testing for bronchial asthma or chronic obstructive pulmonary disease” (Genox Research, Inc., priority 2002, published 2005)
